Paper PMC10609273, “Radiosynthesis and Early Evaluation of a Positron Emission Tomography Imaging Probe [^18F]AGAL Targeting Alpha-Galactosidase A Enzyme for Fabry Disease” (Molecules, 2023)

Key:
[1] = target: T1, Chinese hamster ovary cell-derived wild type aGal A (CHO aGal A) (Homo sapiens, UniProt P06280); assay: In vitro affinity assay: residual activity of CHO aGal A enzyme, hydrolysis of 4-methylumbelliferyl-α-D-galactopyranoside; type: biochemical; details: 1 nM enzyme, 30 min preincubation at room temperature, pH 4.6, 5 mM 4-MUGA substrate
T1 construct: host or cells: Chinese hamster ovary (CHO) cells
T1 sequence (P06280 32-429): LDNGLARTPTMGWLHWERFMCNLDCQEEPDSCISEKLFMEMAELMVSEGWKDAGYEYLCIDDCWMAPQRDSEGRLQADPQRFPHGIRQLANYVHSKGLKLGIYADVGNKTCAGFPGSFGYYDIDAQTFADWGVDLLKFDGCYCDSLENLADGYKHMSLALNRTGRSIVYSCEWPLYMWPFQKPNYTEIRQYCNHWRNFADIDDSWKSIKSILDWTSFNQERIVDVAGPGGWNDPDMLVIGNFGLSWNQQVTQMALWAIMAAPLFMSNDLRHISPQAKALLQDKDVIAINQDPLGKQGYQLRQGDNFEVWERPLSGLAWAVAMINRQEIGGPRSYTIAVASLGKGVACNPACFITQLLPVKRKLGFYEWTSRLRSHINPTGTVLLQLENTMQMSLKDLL
Procedure: Using an in vitro affinity assay, measurement of residual activity by preincubating the enzyme with varying concentrations of the probe confirmed that the [^19F]
Figure 5 Residual activity of CHO aGal A enzyme measured via hydrolysis of substrate 4−methylumbelliferyl−α−D−galactopyranoside after 30 min of preincubation with AGAL probe.
The IC50 assessment for the aGal inhibitors was performed using the fluorescent substrate in a McIlvaine buffer at pH 4.6. The CHO aGal A enzyme at 1 nM was pre-incubated with different concentrations of the inhibitor or DMSO as control for 30 min at room temperature. The fluorescent substrate 4-methylumbelliferyl-α-D-galactopyranoside (Research Products International company, catalog number M65400, Mount Prospect, IL, USA) was then added to a final concentration of 5 mM. The reaction was quenched with 0.5 M sodium bicarbonate buffer, with pH 10.5, and plates were read using a SpectraMax reader at excitation and emission wavelengths of 360 and 460 nm, respectively. Data were corrected for background fluorescence and IC50 calculation was performed using an inhibitory dose–response curve fitting in GraphPad Prizm 8.0.

[2] = In vitro liver microsomal metabolism study, human; type: in vitro ADME; details: human liver microsomes
Procedure: Metabolic stability was assessed by incubating compounds in the presence of human, rat, and mouse liver microsomal fractions (Xenotech, Kansas City, KS, USA). All chemicals and reagents, including control compounds, were purchased from commercial sources such as Sigma-Aldrich (St. Louis, MO, USA) or Toronto Research Chemicals (North York, ON, Canada). Liver microsomal incubations were conducted with 100 mM phosphate buffer, 0.5 mg/mL of liver microsomal protein, 2 mM NADPH, 2.5 mM UDPGA, 3 mM MgCl2, alamethicin, and 1 μM test article for a total incubation volume of 80 µL. All reagents except the liver microsomes were mixed together and aliquoted (60 μL) into 96-well plates. The reaction was initiated by adding the microsomes (20 μL). At 0, 3, 7, 12, 20, and 30 min time points, the reactions were terminated with the addition of acetonitrile-containing carbutamide (as an internal standard). The terminated samples were then centrifuged at 2 °C to pellet the protein and the supernatant was injected onto an LC–MS. The test article was monitored for loss over time and the t1/2 was determined. The calculated t1/2 was then used as described below to determine the Eh (hepatic extraction ratio) for both human and rat.
The intrinsic clearance (CLint), hepatic clearance (CLh), and hepatic extraction ratio (Eh) were calculated using the equations below. CLint = (0.693/t1/2 in vitro) × (mL incubation volume/mg microsomal protein) × (X mg of microsomal protein/gram of liver) × (Y g of liver/kg of body weight)(1) CLh = Q × CLint/Q + CLint(2) Eh = CLh/Q(3) where: • CLint = intrinsic clearance (calculated from microsomal incubations) • X = 40 for human, 41.5 for rat and 45 for mouse • Y = 21.4 for human, 40 for rat and 50 for mouse • t1/2 = half-life • CLh = hepatic clearance • Q = liver blood flow rate = 1.24 L/h/kg for human, 4.8 L/h/kg for rat, and 5.4 L/h/kg for mouse • Eh = hepatic extraction ratio • CLh = hepatic clearance

IC50 [1]: 30 nM | CLh [2]: <4.68 mL/min/kg | Eh (hepatic extraction ratio) [2]: <0.226 | microsomal stability, clearance in words [2]: minimally cleared | CLint scaled at 1 µM ([2]; 1 μM, NADPH + UDPGA): < 6.05 mL/min/kg
Compound: O=C(CCCCCCCn1cc(CCCF)nn1)N1[C@@H]2[C@H](O)[C@@H](O)[C@@H](O)[C@@H](CO)[C@@H]21 [AGAL]
